According to patent publication US20230322769A1, “HETEROAROMATIC RING COMPOUND AS RET KINASE INHIBITOR, AND PREPARATION AND USE THEREOF” (JIANGSU CHIA TAI FENGHAI PHARMACEUTICAL CO., LTD., priority 2020, published 2023):
Where two headings read alike, the source gives them in different places.

Assays:
FGFR2 K641R = FGFR2 K641R (Homo sapiens (Human), UniProt P21802, K641R); experiment: HTRF kinase activity assay, FGFR2 K641R; format: biochemical
Procedure: (§1) Activity Experiment 8: Inhibition of FGFR Family Kinases' Activity by Prepared Compounds The compounds were assayed for activity IC50 against the FGFR family kinases. Related kinases were purchased from Carna and Signalchem. The activity assay method for the related kinases was established by homogeneous time-resolved fluorescence (HTRF), and the inhibitory activity of the compounds was determined. […] The kinases and compounds were pre-incubated for 10 min, and then ATP and substrate were added to start the reaction. All the enzyme-catalyzed reactions were carried out at 25° C. for 40 min. After the enzyme-catalyzed reactions were completed, 5 μL of TK antibody-cryptate and streptavidin-XL665 (the reaction concentration of streptavidin-XL665 was 62.5 nM) were added to the reaction mixtures, and the mixtures were incubated at 25° C. for another 60 min.

[1] = Tissue distribution assay in mice; format: in vivo, mouse; conditions: for concentration at 4 h: male, mouse
Procedure: Male NVSG mice (weighing 20-25 g) were orally administered compound 94 and Loxo-292 at a dose of 30 mg/kg. The plasma and tissue samples of the liver, the brain and the lungs and the like of the animals are collected 4 h after administration. Blood plasma collection: The whole blood was collected at about 80-100 μL in EDTA-containing EP tubes and centrifuged at 4000 g for 5 min, and then the upper plasma was collected and stored at −80° C.
Tissue collection: After the animals were euthanized, the tissues were collected and snap-frozen in liquid nitrogen, 5 mL of homogenization solution (50% acetonitrile) was added per gram of tissue. The tissues were processed into homogenates in a tissue homogenizer and stored at −80° C. The concentration of compound in the plasma and tissue samples was quantified by liquid chromatography-tandem mass spectrometry (LC-MS/MS).

FGFR2 N549H = FGFR2 N549H (Homo sapiens (Human), UniProt P21802, N549H); experiment: HTRF kinase activity assay, FGFR2 N549H; format: biochemical
Procedure: as §1

FGFR2 = FGFR2 (Homo sapiens (Human), UniProt P21802); experiment: HTRF kinase activity assay, FGFR2; format: biochemical
Procedure: as §1

FGFR4 = FGFR4 (Homo sapiens (Human), UniProt P22455); experiment: HTRF kinase activity assay, FGFR4; format: biochemical
Procedure: (§2) Activity Experiment 8: Inhibition of FGFR Family Kinases' Activity by Prepared Compounds The compounds were assayed for activity IC50 against the FGFR family kinases. Related kinases were purchased from Carna and Signalchem.
(§3) The activity assay method for the related kinases was established by homogeneous time-resolved fluorescence (HTRF), and the inhibitory activity of the compounds was determined. A 5 μL reaction mixture was prepared, comprising 1× enzymatic buffer (Cisbio, HTRF KinEASE™-TK), 5 mM MgCl2, 1 mM DTT, 1 μM TK substrate-biotin (Cisbio, HTRF KinEASE™-TK), corresponding concentrations of ATP and related kinases, and gradient concentrations of compounds.
(§4) The kinases and compounds were pre-incubated for 10 min, and then ATP and substrate were added to start the reaction. All the enzyme-catalyzed reactions were carried out at 25° C. for 40 min. After the enzyme-catalyzed reactions were completed, 5 μL of TK antibody-cryptate and streptavidin-XL665 (the reaction concentration of streptavidin-XL665 was 62.5 nM) were added to the reaction mixtures, and the mixtures were incubated at 25° C. for another 60 min.

FGFR1 = FGFR1 (Homo sapiens (Human), UniProt P11362); experiment: HTRF kinase activity assay, FGFR1; format: biochemical
Procedure: as §2, §3, §4

FGFR2 V564I = FGFR2 V564I (Homo sapiens (Human), UniProt P21802, V564I); experiment: HTRF kinase activity assay, FGFR2 V564I; format: biochemical
Procedure: as §1

Ba/F3 KIF5B-RET cells = experiment: Ba/F3 KIF5B-RET cell inhibition (CellTiter-Glo); format: cell-based; conditions: Mus musculus, BaF3, 72 h
Procedure: (§5) Activity Experiment 3: Inhibition of Ba/F3 KIF5B-RET Cells by Prepared Compounds Ba/F3 KIF5B-RET, Ba/F3KIF5B-RET-V804M, Ba/F3 RET-M918T and Ba/F3 KIF5B-RET-G810R cells growing in log phase were harvested and counted using a […]. The cell viability was determined by the trypan blue exclusion method, and the cell viability was kept over 90%. The cell concentration was adjusted, and 90 μL of the cell suspension was added to a 96-well plate. The cells in the 96-well plate were incubated overnight at 37° C. with 5% CO2 and 95% humidity. Corresponding gradient concentrations of drug solutions (the maximum concentration was 1000 nM) were added to the 96-well plate inoculated with cells at 10 μL/well. Triplicate wells were set per drug concentration, and the final concentration of DMSO was 0.1%. The drug-treated cells in the 96-well plate were incubated for another 72 h at 37° C. with 5% CO2 and 95% humidity. After the drug treatment was completed, 100 μL of CellTiter-Glo reagent was added to each well. The cell plate was shaken on an orbital shaker for 5 min to lyse the cells and then let stand at room temperature for 20 min to stabilize the luminescence signals, and then the luminescence values were read. The data were analyzed using the GraphPad Prism 5.0 software. Dose-response curves were fit to the data using nonlinear S-curve regression, and IC50 was calculated from the curves.

[2] = system: Ba/F3 KIF5B-RET-V804M cells; experiment: Ba/F3 KIF5B-RET-V804M cell inhibition (CellTiter-Glo); format: cell-based; conditions: Mus musculus, BaF3, 72 h
Procedure: as §5

FGFR3 V555M = FGFR3 V555M (Homo sapiens (Human), UniProt P22607, V555M); experiment: HTRF kinase activity assay, FGFR3 V555M; format: biochemical
Procedure: as §2, §3, §4

FGFR1 V561M = FGFR1 V561M (Homo sapiens (Human), UniProt P11362, V561M); experiment: HTRF kinase activity assay, FGFR1 V561M; format: biochemical
Procedure: as §2, §3, §4

Ba/F3 RET-M918T cells = experiment: Ba/F3 RET-M918T cell inhibition (CellTiter-Glo); format: cell-based; conditions: Mus musculus, BaF3, 72 h
Procedure: as §5

FGFR3 K650E = FGFR3 K650E (Homo sapiens (Human), UniProt P22607, K650E); experiment: HTRF kinase activity assay, FGFR3 K650E; format: biochemical
Procedure: as §2, §3, §4

[3] = system: BA/F3 KIF5B-RET graft tumor; experiment: Mouse subcutaneous BA/F3 KIF5B-RET graft tumor model; format: in vivo
[4] = NVSG mice, oral 30 mg/kg, 4 h after administration
[5] = 30 mg/kg b.i.d. intragastric, Day 11
[6] = 30 mg/kg b.i.d. intragastric, Day 15

Chain of FGFR3 K650E (P22607 23-806 K650E): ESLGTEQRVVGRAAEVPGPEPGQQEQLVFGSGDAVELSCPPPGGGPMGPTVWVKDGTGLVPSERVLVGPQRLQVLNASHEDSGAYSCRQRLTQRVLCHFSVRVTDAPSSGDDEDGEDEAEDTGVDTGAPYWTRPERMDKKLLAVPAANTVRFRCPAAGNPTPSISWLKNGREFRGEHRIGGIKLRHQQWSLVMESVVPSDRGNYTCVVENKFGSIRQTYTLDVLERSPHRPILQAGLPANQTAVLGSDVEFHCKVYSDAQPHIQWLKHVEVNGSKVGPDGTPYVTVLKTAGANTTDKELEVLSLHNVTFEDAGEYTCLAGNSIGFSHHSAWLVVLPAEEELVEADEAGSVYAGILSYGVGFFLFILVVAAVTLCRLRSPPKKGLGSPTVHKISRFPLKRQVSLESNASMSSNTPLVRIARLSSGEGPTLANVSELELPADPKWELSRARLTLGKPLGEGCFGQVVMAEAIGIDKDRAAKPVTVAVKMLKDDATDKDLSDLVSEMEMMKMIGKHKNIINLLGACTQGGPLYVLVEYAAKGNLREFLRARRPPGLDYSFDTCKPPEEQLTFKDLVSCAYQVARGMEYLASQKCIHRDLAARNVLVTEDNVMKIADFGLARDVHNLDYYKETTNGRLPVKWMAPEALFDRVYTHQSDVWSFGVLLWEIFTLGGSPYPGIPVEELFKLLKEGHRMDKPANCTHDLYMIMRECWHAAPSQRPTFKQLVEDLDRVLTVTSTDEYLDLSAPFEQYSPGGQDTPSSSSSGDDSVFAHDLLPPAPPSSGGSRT
Chain of FGFR2 N549H (P21802 22-821 N549H): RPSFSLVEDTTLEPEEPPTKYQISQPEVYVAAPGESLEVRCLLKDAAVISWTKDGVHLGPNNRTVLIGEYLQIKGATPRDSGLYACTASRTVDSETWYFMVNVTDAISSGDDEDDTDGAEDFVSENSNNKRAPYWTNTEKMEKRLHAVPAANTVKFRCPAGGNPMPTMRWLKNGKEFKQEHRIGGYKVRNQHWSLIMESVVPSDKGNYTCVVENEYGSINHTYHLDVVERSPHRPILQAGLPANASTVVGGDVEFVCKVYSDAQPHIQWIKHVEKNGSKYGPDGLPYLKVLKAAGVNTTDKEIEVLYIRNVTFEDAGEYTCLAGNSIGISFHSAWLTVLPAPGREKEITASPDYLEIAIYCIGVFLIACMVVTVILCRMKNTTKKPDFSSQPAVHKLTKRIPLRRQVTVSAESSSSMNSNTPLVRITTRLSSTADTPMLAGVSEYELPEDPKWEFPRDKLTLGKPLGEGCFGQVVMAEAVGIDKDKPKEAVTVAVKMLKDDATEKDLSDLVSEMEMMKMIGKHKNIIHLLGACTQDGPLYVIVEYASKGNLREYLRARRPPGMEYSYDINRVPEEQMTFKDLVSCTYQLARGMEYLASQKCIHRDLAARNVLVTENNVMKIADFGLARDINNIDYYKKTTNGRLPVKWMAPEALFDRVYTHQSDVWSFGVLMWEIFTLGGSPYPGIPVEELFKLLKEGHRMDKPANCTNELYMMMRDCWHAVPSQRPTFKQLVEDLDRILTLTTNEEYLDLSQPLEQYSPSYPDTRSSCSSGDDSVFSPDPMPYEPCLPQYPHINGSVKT
Chain of FGFR2 (P21802 22-821): as the sequence (P21802 22-821 N549H) above, with H528N counted along it
Chain of FGFR1 V561M (P11362 22-822 V561M): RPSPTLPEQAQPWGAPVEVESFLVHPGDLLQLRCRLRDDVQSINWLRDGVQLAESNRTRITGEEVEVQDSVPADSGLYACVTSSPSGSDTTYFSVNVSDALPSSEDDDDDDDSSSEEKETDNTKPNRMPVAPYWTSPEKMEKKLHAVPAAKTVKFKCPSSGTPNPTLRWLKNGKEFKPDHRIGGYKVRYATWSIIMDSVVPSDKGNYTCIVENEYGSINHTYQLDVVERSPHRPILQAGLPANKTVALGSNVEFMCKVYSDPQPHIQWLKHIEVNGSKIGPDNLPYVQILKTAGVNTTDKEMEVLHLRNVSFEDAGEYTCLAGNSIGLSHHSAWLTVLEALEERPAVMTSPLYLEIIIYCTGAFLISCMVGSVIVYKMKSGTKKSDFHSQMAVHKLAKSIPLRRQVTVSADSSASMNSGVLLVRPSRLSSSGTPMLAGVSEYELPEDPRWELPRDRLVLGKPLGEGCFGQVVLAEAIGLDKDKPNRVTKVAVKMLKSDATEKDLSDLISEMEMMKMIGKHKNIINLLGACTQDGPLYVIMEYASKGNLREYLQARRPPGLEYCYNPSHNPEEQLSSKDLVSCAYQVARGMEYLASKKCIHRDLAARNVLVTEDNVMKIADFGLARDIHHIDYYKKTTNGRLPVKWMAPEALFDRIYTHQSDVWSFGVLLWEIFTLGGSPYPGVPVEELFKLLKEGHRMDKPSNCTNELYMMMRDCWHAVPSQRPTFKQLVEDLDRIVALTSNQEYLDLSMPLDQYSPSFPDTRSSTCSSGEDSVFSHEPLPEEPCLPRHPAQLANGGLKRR
Chain of FGFR2 K641R (P21802 22-821 K641R): as the sequence (P21802 22-821 N549H) above, with H528N, K620R counted along it
Chain of FGFR4 (P22455 22-802): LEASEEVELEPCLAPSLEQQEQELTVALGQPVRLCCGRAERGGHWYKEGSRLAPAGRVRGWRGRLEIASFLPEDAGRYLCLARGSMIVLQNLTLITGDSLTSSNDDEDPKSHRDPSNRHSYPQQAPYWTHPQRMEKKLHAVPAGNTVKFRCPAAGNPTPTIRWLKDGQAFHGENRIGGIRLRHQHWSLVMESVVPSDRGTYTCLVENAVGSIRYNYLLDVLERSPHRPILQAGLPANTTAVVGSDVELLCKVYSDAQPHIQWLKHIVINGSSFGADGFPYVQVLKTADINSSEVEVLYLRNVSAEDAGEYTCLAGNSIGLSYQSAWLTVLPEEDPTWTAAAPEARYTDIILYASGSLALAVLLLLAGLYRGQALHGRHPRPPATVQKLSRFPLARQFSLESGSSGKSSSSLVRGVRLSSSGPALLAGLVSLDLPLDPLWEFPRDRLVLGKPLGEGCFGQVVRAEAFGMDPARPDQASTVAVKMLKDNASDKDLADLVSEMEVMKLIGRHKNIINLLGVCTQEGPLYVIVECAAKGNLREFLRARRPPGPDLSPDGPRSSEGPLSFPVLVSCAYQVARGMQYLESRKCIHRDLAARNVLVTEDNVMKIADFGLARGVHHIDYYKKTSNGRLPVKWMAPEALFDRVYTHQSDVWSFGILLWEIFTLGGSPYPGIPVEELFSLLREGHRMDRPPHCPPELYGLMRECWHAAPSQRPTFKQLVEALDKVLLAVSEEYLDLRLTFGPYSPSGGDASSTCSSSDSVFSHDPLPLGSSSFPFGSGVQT
Chain of FGFR1 (P11362 22-822): as the sequence (P11362 22-822 V561M) above, with M540V counted along it
Chain of FGFR2 V564I (P21802 22-821 V564I): as the sequence (P21802 22-821 N549H) above, with H528N, V543I counted along it
Chain of FGFR3 V555M (P22607 23-806 V555M): as the sequence (P22607 23-806 K650E) above, with V533M, E628K counted along it

Structure (SMILES)	IC50 (FGFR2 K641R) [µM]	IC50 (FGFR2 N549H) [µM]	IC50 (FGFR2) [µM]	IC50 (FGFR4) [µM]	IC50 (FGFR1) [µM]	IC50 (FGFR2 V564I) [µM]	IC50 (Ba/F3 KIF5B-RET cells) [µM]	IC50 [2] [µM]	IC50 (FGFR3 V555M) [µM]	IC50 (FGFR1 V561M) [µM]	IC50 (Ba/F3 RET-M918T cells) [µM]	IC50 (FGFR3 K650E) [µM]	Volume of graft tumor (mean ± SD) [3, 5] [mm^3]	Volume of graft tumor (mean ± SD) [3, 6] [mm^3]	other results
[2H]C([2H])([2H])N1CCN(c2cc(-c3ccc(N4CC5CC(C4)N5Cc4ccc(OC)nc4)nc3)c3c(C#N)cnn3c2)CC1 [Compound 94]	0.00739	0.00219	0.0265	0.595	0.301	0.0456	0.0198	0.099	0.0743	1.4	0.0171	0.0365	12.19 ± 27.25	8.00 ± 17.89	Concentration of compound in brain [1, 4]: 2883.99 ng/g; Concentration of compound in liver [1, 4]: 70199.89 ng/g; Concentration of compound in lung [1, 4]: 87220.49 ng/g; Concentration of compound in plasma [1, 4]: 3.17497 µg/mL; Concentration distribution in tissues of target organs of mice compared with Loxo-292 ([1]; after oral administration): higher concentration distribution; Volume of graft tumor (mean ± SD) ([3]; 30 mg/kg b.i.d. intragastric, Day 0): 96.85 ± 2.24 mm^3; Volume of graft tumor (mean ± SD) ([3]; 30 mg/kg q.d. intragastric, Day 0): 96.95 ± 1.48 mm^3; Volume of graft tumor (mean ± SD) ([3]; 30 mg/kg q.d. intragastric, Day 11): 14.57 ± 23.42 mm^3; Volume of graft tumor (mean ± SD) ([3]; 30 mg/kg q.d. intragastric, Day 15): 9.73 ± 16.31 mm^3; Volume of graft tumor (mean ± SD) ([3]; 60 mg/kg q.d. intragastric, Day 0): 96.76 ± 2.34 mm^3; Volume of graft tumor (mean ± SD) ([3]; 60 mg/kg q.d. intragastric, Day 11): 6.11 ± 14.98 mm^3; Volume of graft tumor (mean ± SD) ([3]; 60 mg/kg q.d. intragastric, Day 15): 3.75 ± 9.19 mm^3
COc1ccc(CN2C3CC2CN(c2ccc(-c4cc(OCC(C)(C)O)cn5ncc(C#N)c45)cn2)C3)cn1 [Selpercatinib, selpercatinib, reference compound]	0.0112	0.00926	0.0206	0.475	0.304	0.0976	0.00834	0.0384	0.188	1.95	0.0204	0.0459	19.68 ± 17.97	13.59 ± 12.43	concentration at 4 h ([1]; brain, NVSG mice, oral 30 mg/kg, 4 h after administration, read-out: Concentration of compound in brain): 88.3 ng/g; concentration at 4 h ([1]; liver, NVSG mice, oral 30 mg/kg, 4 h after administration, read-out: Concentration of compound in liver): 12900 ng/g; concentration at 4 h ([1]; lung, NVSG mice, oral 30 mg/kg, 4 h after administration, read-out: Concentration of compound in lung): 7190 ng/g; concentration at 4 h ([1]; plasma, NVSG mice, oral 30 mg/kg, 4 h after administration, read-out: Concentration of compound in plasma): 14.6 µg/mL
